Test results from patent publication US8759318B2, “Phosphoramidate derivatives of guanosine nucleoside compounds for treatment of viral infections” (Inhibitex, Inc., priority 2009, dated 2014).

Columns and labels:
[1] = test system: HCV replicon (Genotype 1b); test: Luciferase genotype 1b replicon potency assay; settings: Hepatitis C virus, GETYPE1B, read-out: IC50 μM, HCV genotype 1b luciferase replicon, Renilla luciferase reporter
in vitro = settings: human

## COc1nc(N)nc2c1ncn2C1O[C@H](COP(=O)(N[C@@H](CCSC)C(=O)O[C@@H](C)c2ccccc2)Oc2cccc3ccccc23)[C@@H](O)[C@@]1(C)O (stereo partly drawn) [Example 59, (2S)-((S)-1-phenylethyl) 2-((((2R,3R,4R)-5-(2-amino-6-methoxy-9H-purin-9-yl)-3,4-dihydroxy-4-methyltetrahydrofuran-2-yl)methoxy)(naphthalen-1-yloxy)phosphorylamino)-4-(methylthio)butanoate]
[1]
  IC50: 0.32 µM
In vitro
  CC50: 30 µM

## COc1nc(N)nc2c1ncn2C1O[C@H](COP(=O)(N[C@H](C(=O)OCc2ccc(F)cc2F)C(C)C)Oc2cccc3ccccc23)[C@@H](O)[C@@]1(C)O (some centres unmarked) [Example 37]
[1]
  IC50: 0.043 µM
In vitro
  CC50: 16 µM

## CCOc1nc(N)nc2c1ncn2C1O[C@H](COP(=O)(N[C@@H](C)C(=O)OCC(C)(C)C)Oc2cccc3ccccc23)[C@@H](O)[C@@]1(C)O (some centres unmarked) [Example 76]
[1]
  IC50: 0.01 µM
In vitro
  CC50: 10 µM

## COc1nc(N)nc2c1ncn2[C@@H]1O[C@H](COP(=O)(N[C@@H](CC(C)C)C(=O)OCC(C)(C)C)Oc2cccc3ccccc23)[C@@H](O)[C@@]1(C)O (some centres unmarked) [Example 61]
[1]
  IC50: 0.071 µM
In vitro
  CC50: 14 µM

## COc1nc(N)nc2c1ncn2C1O[C@H](COP(=O)(N[C@H](C(=O)OC2CCCCC2)C(C)C)Oc2cccc3ccccc23)[C@@H](O)[C@@]1(C)O (some centres unmarked) [Example 46]
[1]
  IC50: 0.42 µM
In vitro
  CC50: 24 µM

## COc1nc(N)nc2c1ncn2C1O[C@H](COP(=O)(N[C@H](C(=O)OCC2CC2)C(C)C)Oc2cccc3ccccc23)[C@@H](O)[C@@]1(C)O (stereo partly drawn) [Example 43, (2S)-cyclopropylmethyl 2-((((2R,3R,4R)-5-(2-amino-6-methoxy-9H-purin-9-yl)-3,4-dihydroxy-4-methyltetrahydrofuran-2-yl)methoxy) (naphthalen-1-yloxy)phosphorylamino)-3-methylbutanoate]
[1]
  IC50: 0.18 µM
In vitro
  CC50: 6 µM

## CSc1nc(N)nc2c1ncn2[C@@H]1O[C@H](COP(=O)(N[C@@H](C)C(=O)OCC(C)(C)C)Oc2ccc3ncccc3c2)[C@@H](O)[C@@]1(C)O (stereo partly drawn) [Example 91, (2S)-neopentyl 2-((((2R,3R,4R,5R)-5-(2-amino-6-(methylthio)-9H-purin-9-yl)-3,4-dihydroxy-4-methyltetrahydrofuran-2-yl)methoxy)(quinolin-6-yloxy)phosphorylamino)propanoate]
[1]
  IC50: 0.26 µM
In vitro
  CC50: > 100 µM

## CNc1nc(N)nc2c1ncn2C1O[C@H](COP(=O)(N[C@@H](C)C(=O)O[C@@H](C)c2ccccc2)Oc2cccc3ccccc23)[C@@H](O)[C@@]1(C)O (stereo partly drawn) [Example 82, (2S)-((S)-1-phenylethyl) 2-((((2R,3R,4R)-5-(2-amino-6-(methylamino)-9H -purin-9-yl)-3,4-dihydroxy-4-methyltetrahydrofuran-2-yl)methoxy) (naphthalen-1-yloxy)phosphorylamino)propanoate]
[1]
  IC50: 0.11 µM
In vitro
  CC50: 54 µM

## COc1nc(N)nc2c1ncn2C1O[C@H](COP(=O)(N[C@H](C(=O)OCC(C)(C)C)C(C)C)Oc2ccc3ncccc3c2)[C@@H](O)[C@@]1(C)O (stereo partly drawn) [Example 52, (2S)-neopentyl 2-((((2R,3R,4R)-5-(2-amino-6-methoxy-9H-purin-9-yl)-3,4-dihydroxy-4-methyltetrahydrofuran-2-yl)methoxy)(quinolin-6-yloxy)phosphorylamino)-3-methylbutanoate]
[1]
  IC50: 0.19 µM
In vitro
  CC50: > 100 µM

## COc1nc(N)nc2c1ncn2C1O[C@H](COP(=O)(N[C@H](C(=O)OC2CCC2)C(C)C)Oc2cccc3ccccc23)[C@@H](O)[C@@]1(C)O (stereo partly drawn) [Example 44, (2S)-cyclobutyl 2-((((2R,3R,4R)-5-(2-amino-6-methoxy-9H-purin-9-yl)-3,4-dihydroxy-4-methyltetrahydrofuran-2-yl)methoxy)(naphthalen-1-yloxy)phosphorylamino)-3-methylbutanoate]
[1]
  IC50: 0.39 µM
In vitro
  CC50: 64 µM

## COc1nc(NCc2ccc(F)cc2)nc2c1ncn2[C@@H]1O[C@H](COP(=O)(N[C@@H](C)C(=O)OCC(C)(C)C)Oc2cccc3ccccc23)[C@@H](O)[C@@]1(C)O (stereo partly drawn) [Example 93, (2S)-neopentyl 2-((((2R,3R,4R,5R)-5-(2-(4-fluorobenzylamino)-6-methoxy-9H-purin-9-yl)-3,4-dihydroxy-4-methyltetrahydrofuran-2-yl)methoxy)(naphthalen-1-yloxy)phosphorylamino)propanoate]
[1]
  IC50: 7.2 µM
In vitro
  CC50: 17 µM

## CCCOC(=O)[C@H](C)NP(=O)(OC[C@H]1OC(n2cnc3c(OC)nc(N)nc32)[C@](C)(O)[C@@H]1O)Oc1cccc2ccccc12 (stereo partly drawn) [Example 17, (2S)-propyl 2-((((2R,3R,4R)-5-(2-amino-6-methoxy-9H-purin-9-yl)-3,4-dihydroxy-4-methyltetrahydrofuran-2-yl)methoxy)(naphthalen-1-yloxy)phosphorylamino)propanoate]
[1]
  IC50: 0.029 µM
In vitro
  CC50: 12 µM

## COc1nc(N)nc2c1ncn2C1O[C@H](COP(=O)(N[C@H](C(=O)OC2CCCC2)C(C)C)Oc2cccc3ccccc23)[C@@H](O)[C@@]1(C)O (some centres unmarked) [Example 45]
[1]
  IC50: 0.33 µM
In vitro
  CC50: 56 µM

## COc1nc(N)nc2c1ncn2C1O[C@H](COP(=O)(N[C@H](C)C(=O)OCC(C)(C)C)Oc2cccc3ccccc23)[C@@H](O)[C@@]1(C)O (some centres unmarked) [Example 57]
[1]
  IC50: 0.24 µM
In vitro
  CC50: 51 µM

## CCCOC(=O)[C@@H](NP(=O)(OC[C@H]1OC(n2cnc3c(OC)nc(N)nc32)[C@](C)(O)[C@@H]1O)Oc1cccc2ccccc12)c1ccccc1 (some centres unmarked) [Example 65]
[1]
  IC50: 0.086 µM

## COc1nc(N)nc2c1ncn2C1O[C@H](COP(=O)(N[C@@H](C(=O)OCC(C)(C)C)c2ccccc2)Oc2cccc3ccccc23)[C@@H](O)[C@@]1(C)O (stereo partly drawn) [Example 70, (2R)-neopentyl 2-((((2R,3R,4R)-5-(2-amino-6-methoxy-9H-purin-9-yl)-3,4-dihydroxy-4-methyltetrahydrofuran-2-yl)methoxy)(naphthalen-1-yloxy)phosphorylamino)-2-phenylacetate]
[1]
  IC50: 0.077 µM
In vitro
  CC50: 38 µM

## COc1nc(N)nc2c1ncn2C1O[C@H](COP(=O)(N[C@@H](C)C(=O)OCCC(C)(C)C)Oc2cccc3ccccc23)[C@@H](O)[C@@]1(C)O (stereo partly drawn) [Example 18, (2S)-3,3-dimethylbutyl 2-((((2R,3R,4R)-5-(2-amino-6-methoxy-9H-purin-9-yl)-3,4-dihydroxy-4-methyltetrahydrofuran-2-yl)methoxy)(naphthalen-1-yloxy)phosphorylamino)propanoate]
[1]
  IC50: 0.013 µM
In vitro
  CC50: 7.6 µM

## CCOc1nc(N)nc2c1ncn2C1O[C@H](COP(=O)(N[C@@H](C)C(=O)OCc2ccccc2)Oc2cccc3ccccc23)[C@@H](O)[C@@]1(C)O (stereo partly drawn) [Example 73, (2S)-benzyl 2-((((2R,3R,4R)-5-(2-amino-6-ethoxy-9H-purin-9-yl)-3,4-dihydroxy-4-methyltetrahydrofuran-2-yl)methoxy)(naphthalen-1-yloxy)phosphorylamino)propanoate]
[1]
  IC50: 0.037 µM
In vitro
  CC50: 11 µM

## COc1nc(N)nc2c1ncn2C1O[C@H](COP(=O)(N[C@@H](C)C(=O)OC2CCOCC2)Oc2cccc3ncccc23)[C@@H](O)[C@@]1(C)O (stereo partly drawn) [Example 32, (2S)-tetrahydro-2H-pyran-4-yl 2-((((2R,3R,4R)-5-(2-amino-6-methoxy-9H-purin-9-yl)-3,4-dihydroxy-4-methyltetrahydrofuran-2-yl)methoxy)(quinolin-5-yloxy)phosphorylamino)propanoate]
[1]
  IC50: 1.2 µM
In vitro
  CC50: > 100 µM

## COc1nc(N)nc2c1ncn2C1O[C@H](COP(=O)(N[C@@H](C)C(=O)OC(C)C)Oc2cccc3ccccc23)[C@@H](O)[C@@]1(C)O (stereo partly drawn) [Example 23, (2S)-isopropyl 2-((((2R,3R,4R)-5-(2-amino-6-methoxy-9H-purin-9-yl)-3,4-dihydroxy-4-methyltetrahydrofuran-2-yl)methoxy)(naphthalen-1-yloxy)phosphorylamino)propanoate]
[1]
  IC50: 0.43 µM
In vitro
  CC50: 100 µM

## COc1nc(N)nc2c1ncn2C1O[C@H](COP(=O)(N[C@@H](C)C(=O)OCC(C)(C)C)Oc2cccc3ccccc23)C[C@@]1(C)O (stereo partly drawn) [Example 97, (2S)-neopentyl 2-((((2S,4R)-5-(2-amino-6-methoxy-9H-purin-9-yl)-4-hydroxy-4-methyltetrahydrofuran-2-yl)methoxy)(naphthalen-1-yloxy)phosphorylamino)propanoate]
[1]
  IC50: > 10 µM
In vitro
  CC50: 44 µM

## COc1nc(N)nc2c1ncn2C1O[C@H](COP(=O)(N[C@@H](C)C(=O)O[C@@H](C)c2ccccc2)Oc2cccc3ccccc23)[C@@H](O)[C@@]1(C)O (some centres unmarked) [Example 15]
[1]
  IC50: 0.032 µM
In vitro
  CC50: 12 µM

## COc1nc(N)nc2c1ncn2C1O[C@H](COP(=O)(N[C@H](C(=O)OCC(C)(C)C)C(C)C)Oc2cc(C(C)(C)C)cc3ccccc23)[C@@H](O)[C@@]1(C)O (some centres unmarked) [Example 55]
[1]
  IC50: 2.1 µM
In vitro
  CC50: 13 µM

## C[C@@]1(O)[C@H](O)[C@@H](CO)O[C@H]1n1cnc2c(NCCc3ccccc3)nc(N)nc21 [Example 86, (3R,4R,5R)-2-(2-amino-6-(phenethylamino)-9H-purin-9-yl)-5-(hydroxymethyl)-3-methyltetrahydrofuran-3,4-diol]
[1]
  IC50: 23.6 µM

## CNc1nc(N)nc2c1ncn2[C@@H]1O[C@H](COP(=O)(N[C@@H](C)C(=O)OCC(C)(C)C)Oc2ccc3ncccc3c2)[C@@H](O)[C@@]1(C)O (stereo partly drawn) [Example 83, (2S)-neopentyl 2-((((2R,3R,4R,5R)-5-(2-amino-6-(methylamino)-9H-purin-9-yl)-3,4-dihydroxy-4-methyltetrahydrofuran-2-yl)methoxy)(quinolin-6-yloxy)phosphorylamino)propanoate]
[1]
  IC50: 0.36 µM
In vitro
  CC50: > 100 µM

## COc1nc(N)nc2c1ncn2C1O[C@H](COP(=O)(N[C@@H](CCSC)C(=O)OCc2ccccc2)Oc2cccc3ccccc23)[C@@H](O)[C@@]1(C)O (stereo partly drawn) [Example 58, (2S)-benzyl 2-((((2R,3R,4R)-5-(2-amino-6-methoxy-9H-purin-9-yl)-3,4-dihydroxy-4-methyltetrahydrofuran-2-yl)methoxy)(naphthalen-1-yloxy)phosphorylamino)-4-(methylthio)butanoate]
[1]
  IC50: 0.22 µM

## COc1nc(N)nc2c1ncn2C1O[C@H](COP(=O)(N[C@@H](C(=O)OCc2ccccc2)c2ccccc2)Oc2cccc3ccccc23)[C@@H](O)[C@@]1(C)O (some centres unmarked) [compound 68]
In vitro
  CC50: 50 µM
